How the values were obtained:
CaM = conditions: read-out: Kd of CDZ as CaM inhibitor; cited from earlier work
Cx50 gap junctions = type: cell-based, mouse; conditions: 1 μM peptide in both whole-cell patch pipettes; 1 μM ionomycin + 1.8 mM [Ca2+]o; Cx50-N2a cell pairs

| Compound | Kd (CaM) [nM] | Share of the Ca2+/CaM-dependent decline in Cx50 Gj prevented (Cx50 gap junctions) [%] |
| --- | --- | --- |
| Clc1ccc(C(c2ccc(Cl)cc2)n2cc[n+](CC(OCc3ccc(Cl)cc3Cl)c3ccc(Cl)cc3Cl)c2)cc1 (centres unmarked) [CDZ, calmidazolium] | ~1000 | – |
| FKLYKCISFGGTEITTRSHVLTKKRL [SCx50p] | – | 20 |

— publication PMC3351833 (Biochemical Journal, 2011)
